# Experimental data from patent US20260000642A1 (Tay Therapeutics Limited, priority 2022, published 2026).
# Assays:
# BRD4 BD2 = target: T1, BRD4 BD2 (Homo sapiens, UniProt O60885); test: NanoBRET bromodomain assay, NanoLuc-BRD4-BD2 fusion vector in HEK293 cells; format: cell-based; details: for BRD4 BD2% Activity Remaining @ 10 uM: first and second (2) batches; for Fold selectivity: IC50 for BRD4 BD1 divided by IC50 for BRD4 BD2, qualitative if an IC50 is at the upper limit; for IC50: NanoBRET, HEK293 cells, top concentration 10 μM
# T1 construct: HEK293 cells were transfected using NanoLuc-BRD4-BD1 or NanoLuc-BRD4-BD2 fusion vectors; host or cells: HEK293
# From the text: (§1) Bromodomain Assay Procedure
# [1] = Plasma stability assay, rat plasma; format: in vitro ADME; details: 37° C., Method 2 (10 μM)
# Description: Exemplary compounds of the disclosure are stable upon incubation in mouse plasma. Stability is expressed as a % remaining after 120 minutes. The experimental methods and results (Table 2) are provided hereinafter.
# Plasma Stability Assay, Method 1
# From stock solution of compound in 10 mM DMSO, a working solution of 1 mM is prepared by diluting the compound in DMSO. To 398 μL of plasma pre-warmed at 37° C. for 15 minutes), 2 μL of working solution of compound is added, resulting in a final concentration of 5 μM (0.5% DMSO) for the compound. The sample is then incubated at 37° C. Aliquot is withdrawn at specified time-points (0, 15, 30, 60 and 120 mins). The reaction is stopped by addition of 450 μL cold acetonitrile containing internal standard (IS). […] Aliquots of the supernatant is analysed using LC-MS/MS. The percent remaining of the compound at each time point is calculated with respect to the control sample (0 min time-point).
# Plasma Stability Assay, Method 2
# A working solution of compound (500 μM) is prepared in DMSO (100%). To 735 μL of plasma, 15 μL of working solution of compound is added—resulting in a final concentration of 10 μM (2% DMSO) for the compound. The sample is then incubated at 37° C. Aliquot is withdrawn at time-points—0, 15, 30, 60, 90 and 120 mins. The reaction is stopped by using chilled acetonitrile containing internal standard (IS). The samples are centrifuged and the supernatants analyzed using LC-MS/MS. The percent remaining of the compound at each time point is calculated with respect to the control sample (0 min time-point).
# [2] = Sprague-Dawley rat pharmacokinetics (IV and PO); format: in vivo; details: male Sprague-Dawley rats, cassette mode, Method 1; for IV T1/2: IV 1 mg/kg; for PO F (%) / bioavailability: PO 5 mg/kg (IV 1 mg/kg); for bioavailability: rat, plasma, read-out: PO F (%)
# From the text: BET protein inhibitors with a long half-life and good oral bioavailability in in vivo DMPK parameters are promising oral drug candidates. Some of the exemplary compounds of the current disclosure have a long half-life and good oral bioavailability in in vivo DMPK parameters in the Sprague-Dawley rat following intravenous (IV) and oral (PO) dosing. The experimental methods and results (Table 5) are provided hereinafter.
# Sprague-Dawley Rat Pharmacokinetics, Method 1
# Compounds were formulated in 5% DMSO, 40% PEG-400, 55% Milli-Q water at a concentration of 0.2 mg/mL for IV and at 0.5 mg/mL for PO. Two male Sprague-Dawley rats per arm were dosed with up to 5 compounds in cassette mode, which each compound being dosed at 1 mg/kg IV and 5 mg/kg PO. Blood was sampled at various timepoints and plasma isolated. 50 μL of plasma with 5 μL of blank Sprague-Dawley rat plasma were added to 200 μL of acetonitrile containing IS mixture. The samples were vortexed for 30 s. After centrifugation at 4 degrees Celsius, 3900 rpm for 15 min, the supernatant was diluted 3 times with water. 20 μL of diluted supernatant was injected into the LC/MS/MS system for quantitative analysis and concentration of analyte determined by comparison with matrix matched standard curve. WinNonlin (Phoenix™, version 8.3) or other similar software may be used for pharmacokinetic calculations.
# BRD4 BD1 = target: T2, BRD4 BD1 (Homo sapiens, UniProt O60885); test: NanoBRET bromodomain assay, NanoLuc-BRD4-BD1 fusion vector in HEK293 cells; format: cell-based; details: top concentration 10 μM
# T2 construct: HEK293 cells were transfected using NanoLuc-BRD4-BD1 or NanoLuc-BRD4-BD2 fusion vectors; host or cells: HEK293
# From the text: as §1
smiles,measurement,setting,value
"CCNC(=O)c1cc(OC(C)c2ccccn2)c(C(=O)NC)[nH]1 (racemic) [Example 96, N^5-ethyl-N^2-methyl-3-(1-(pyridin-2-yl)ethoxy)-1H-pyrrole-2,5-dicarboxamide]",BRD4 BD2% Activity Remaining @ 10 uM,BRD4 BD2; listed as 96 (2),64%
same,Fold selectivity,BRD4 BD2; listed as 96(2)*,— (Fold ≥0 and ≤2)
"CNC(=O)c1[nH]c(C(=O)N[C@@H]2CC[C@@H](O)C2)cc1O[C@@H](C)c1ccccc1 (racemic) [Example 116, N^5-(trans-3-hydroxycyclopentyl)-N^2-methyl-3-((S)-1-phenylethoxy)-1H-pyrrole-2,5-dicarboxamide]",IC50,BRD4 BD2,0.05 to 0.2 µM
"CNC(=O)c1[nH]c(C(=O)NC2CCC2)cc1OC(C)c1ccc(Cl)cc1 (single isomer, unassigned) [Example 27, 3-(1-(4-chlorophenyl)ethoxy)-N^5-cyclobutyl-N^2-methyl-1H-pyrrole-2,5-dicarboxamide]",Plasma Stability (% remaining at 120 minutes) Rat,[1],47%
same,IV T1/2,[2],24 min
same,PO F (%),[2],47%
"CNC(=O)c1[nH]c(C(=O)NC2CCC2)cc1OC(C)c1ccc(Cl)cc1 (single isomer, unassigned) [Example 28, 3-(1-(4-chlorophenyl)ethoxy)-N^5-cyclobutyl-N^2-methyl-1H-pyrrole-2,5-dicarboxamide]",IC50,BRD4 BD1,≥ 10 µM
"CNC(=O)c1[nH]c(C(=O)NC2CCC2)cc1OC(C)c1ccc(Cl)cn1 (single isomer, unassigned) [Example 33, 3-(1-(5-chloropyridin-2-yl)ethoxy)-N^5-cyclobutyl-N^2-methyl-1H-pyrrole-2,5-dicarboxamide]",Plasma Stability (% remaining at 120 minutes) Rat,[1],85%
"CNC(=O)c1[nH]c(C(=O)NC2CCC2)cc1OC(C)c1ccc(Cl)cc1F (single isomer, unassigned) [Example 35]",Plasma Stability (% remaining at 120 minutes) Rat,[1],67%
same,IV T1/2,[2],30 min
same,PO F (%),[2],65%
"CNC(=O)c1[nH]c(C(=O)NC2CCC2)cc1OC(C)c1ccccc1F (single isomer, unassigned) [Example 43, N^5-cyclobutyl-3-(1-(2-fluorophenyl)ethoxy)-N^2-methyl-1H-pyrrole-2,5-dicarboxamide]",Plasma Stability (% remaining at 120 minutes) Rat,[1],20%
same,IV T1/2,[2],30 min
same,PO F (%),[2],58%
"CNC(=O)c1[nH]c(C(=O)N[C@H]2CC[C@H](O)CC2)cc1OC(C)c1ccccc1F (single isomer, unassigned) [Example 45]",Plasma Stability (% remaining at 120 minutes) Rat,[1],88%
same,IC50,BRD4 BD2,0.05 to 0.2 µM
same,IC50,BRD4 BD1,≥ 10 µM
"CCNC(=O)c1cc(OC(C)c2ccc(Br)cc2)c(C(=O)NC)[nH]1 (single isomer, unassigned) [Example 49, 3-(1-(4-bromophenyl)ethoxy)-N^5-ethyl-N^2-methyl-1H-pyrrole-2,5-dicarboxamide]",Plasma Stability (% remaining at 120 minutes) Rat,[1],90%
"CCNC(=O)c1cc(OC(C)c2ccc(I)cc2)c(C(=O)NC)[nH]1 (single isomer, unassigned) [Example 51, N^5-ethyl-3-(1-(4-iodophenyl)ethoxy)-N^2-methyl-1H-pyrrole-2,5-dicarboxamide]",Plasma Stability (% remaining at 120 minutes) Rat,[1],93%
"CCNC(=O)c1cc(OC(C)c2c(F)cccc2F)c(C(=O)NC)[nH]1 (single isomer, unassigned) [Example 55, 3-(1-(2,6-difluorophenyl)ethoxy)-N^5-ethyl-N^2-methyl-1H-pyrrole-2,5-dicarboxamide]",Plasma Stability (% remaining at 120 minutes) Rat,[1],88%
same,IC50,BRD4 BD2,> 10 µM
same,IC50,BRD4 BD1,≥ 10 µM
"CCNC(=O)c1cc(OC(C)c2c(C)cccc2C)c(C(=O)NC)[nH]1 (single isomer, unassigned) [Example 64, 3-(1-(2,6-dimethylphenyl)ethoxy)-N^5-ethyl-N^2-methyl-1H-pyrrole-2,5-dicarboxamide]",IC50,BRD4 BD1,≥ 10 µM
"C#Cc1ccc(C(C)Oc2cc(C(=O)NCC)[nH]c2C(=O)NC)cc1 (single isomer, unassigned) [Example 70, N^5-ethyl-3-(1-(4-ethynylphenyl)ethoxy)-N^2-methyl-1H-pyrrole-2,5-dicarboxamide]",Plasma Stability (% remaining at 120 minutes) Rat,[1],92%
same,bioavailability,[2],44%
"CNC(=O)c1[nH]c(C(=O)N[C@H]2CC[C@H](O)CC2)cc1O[C@@H](C)c1ccnnc1 (single isomer, unassigned) [Example 92, N^5-(4-hydroxycyclohexyl)-N^2-methyl-3-(1-(pyridazin-4-yl)ethoxy)-1H-pyrrole-2,5-dicarboxamide]",IC50,BRD4 BD1,≥ 10 µM
"CNC(=O)c1[nH]c(-c2ncc(C)[nH]2)cc1O[C@H](C)c1ccccc1 [Example 24, (R)—N-methyl-5-(5-methyl-1H-imidazol-2-yl)-3-(1-phenylethoxy)-1H-pyrrole-2-carboxamide]",BRD4 BD2% Activity Remaining @ 10 uM,BRD4 BD2; listed as 24 (2),78%
same,Fold selectivity,BRD4 BD2,X (Fold >2 and ≤50)
same,Fold selectivity,BRD4 BD2; listed as 24 (2)*,— (Fold ≥0 and ≤2)
"CCNC(=O)c1cc(OC(c2ccccc2)c2ccccc2)c(C(=O)NC)[nH]1 [Example 53, 3-(benzhydryloxy)-N^5-ethyl-N^2-methyl-1H-pyrrole-2,5-dicarboxamide]",Plasma Stability (% remaining at 120 minutes) Rat,[1],91%
CNC(=O)c1[nH]c(C(=O)NCC(F)(F)F)cc1O[C@@H](C)c1ccccc1 [Example 54],Plasma Stability (% remaining at 120 minutes) Rat,[1],93%
"CNC(=O)c1[nH]c(C(=O)NC2CC2)cc1O[C@@H](C)c1ccccc1F [Example 59, (S)—N^5-cyclopropyl-3-(1-(2-fluorophenyl)ethoxy)-N^2-methyl-1H-pyrrole-2,5-dicarboxamide]",Plasma Stability (% remaining at 120 minutes) Rat,[1],50%
same,IV T1/2,[2],66 min
same,PO F (%),[2],70%
"CNC(=O)c1[nH]c(C(=O)NC(C)C)cc1O[C@@H](C)c1ccc(Cl)cc1 [Example 61, (S)-3-(1-(4-chlorophenyl)ethoxy)-N^5-isopropyl-N^2-methyl-1H-pyrrole-2,5-dicarboxamide]",Plasma Stability (% remaining at 120 minutes) Rat,[1],81%
"CNC(=O)c1[nH]c(C(=O)NC2CC2)cc1O[C@@H](C)c1ccc(Cl)cc1 [Example 62, (S)-3-(1-(4-chlorophenyl)ethoxy)-N^5-cyclopropyl-N^2-methyl-1H-pyrrole-2,5-dicarboxamide]",Plasma Stability (% remaining at 120 minutes) Rat,[1],82%
same,bioavailability,[2],8%
"CNC(=O)c1[nH]c(-c2ncc(C)[nH]2)cc1O[C@@H](C)c1ccccc1F [Example 68, (S)-3-(1-(2-fluorophenyl)ethoxy)-N-methyl-5-(5-methyl-1H-imidazol-2-yl)-1H-pyrrole-2-carboxamide]",Plasma Stability (% remaining at 120 minutes) Rat,[1],75%
"CNC(=O)c1[nH]c(-c2ncc(C)[nH]2)cc1O[C@@H](C)c1ccc(Cl)cc1 [Example 69, (S)-3-(1-(4-chlorophenyl)ethoxy)-N-methyl-5-(5-methyl-1H-imidazol-2-yl)-1H-pyrrole-2-carboxamide]",Plasma Stability (% remaining at 120 minutes) Rat,[1],83%
"CCNC(=O)c1[nH]c(C(=O)NC)c(O[C@@H](C)c2ccccc2F)c1Br [Example 72, (S)-3-bromo-N^2-ethyl-4-(1-(2-fluorophenyl)ethoxy)-N^5-methyl-1H-pyrrole-2,5-dicarboxamide]",Plasma Stability (% remaining at 120 minutes) Rat,[1],9%
CCNC(=O)c1[nH]c(C(=O)NC)c(O[C@@H](C)c2ccccc2F)c1C [Example 74],Fold selectivity,BRD4 BD2,X (Fold >2 and ≤50)
same,IC50,BRD4 BD2,1 to 10 µM
same,IC50,BRD4 BD1,≥ 10 µM
